The values that follow come from patent US11225605B2, “Polymerizable liquid crystal compound, method for producing polymerizable liquid crystal compound, polymerizable liquid crystal composition, optically anisotropic film, optical film, polarizing plate, and image display device” (FUJIFILM Corporation, priority 2017, dated 2022).

A short description of data set [1]: Solubility in methyl ethyl ketone (MEK) and cyclopentanone (CPN). The settings on record: for Solubility Evaluation: MEK or CPN; for Solubility CPO: cyclopentanone; for Solubility CPO / Solubility MEK: shaken at 50° C., left at room temperature (23° C.) for 10 minutes; for Solubility MEK: methyl ethyl ketone. It counts as physicochemical. On the procedure: Specifically, 50 mg of the compound was weighed into a 1.5-mL sample bottle, and a solvent was added thereto until the solid content became 40% by weight (75 mg).
The mixture was thoroughly shaken by the hand at 50° C. and left to stand at room temperature (23° C.) for 10 minutes. Then, this operation was stopped in a case where the mixture was clear upon visual observation, and it was determined that the solubility was 40% by weight. A solvent was added so that the solid content became 35% by weight in a case where there were undissolved residues (+18 mg). The mixture was thoroughly shaken by the hand at 50° C. and left to stand at room temperature (23° C.) for 10 minutes. […] A solvent was added so that the solid content became 30% by weight in a case where there were undissolved residues. The same operation was performed in 5%-by-weight steps and repeated up to 5% by weight. In a case where there were undissolved residues, it was determined that the solubility was less than 5% by weight (<5% by weight), and the operation was stopped. Methyl ethyl ketone (MEK) and cyclopentanone (CPN) were used as solvents for solubility measurement.

Data set [2] can be described thus: Durability of optically anisotropic film at high temperature and high humidity. It counts as physicochemical. Particulars: for Durability 100° C. Relatibe 144 hours: film left 144 hours at relative humidity 95%, variation in Re (550); for Durability of optically anisotropic film: result in words. How it is done:
With regard to a test condition for durability, a test in which the film was left to stand for 144 hours in an environment of a relative humidity of 95% at 100° C. was performed as described in Table 6 below.

For the compound `C=CC(=O)OCC(C)(C)COC(=O)CCC(=O)OCCc1ccc(OC(=O)C2CCC(C(=O)Oc3c(C)cc(OC(=O)C4CCC(C5CCC(CC)CC5)CC4)c4c3SC(=C(C#N)C#N)S4)CC2)cc1` (centres unmarked) [Compound B-1], in data set [1], the “Solubility Evaluation” value is “B (A solubility in any one of MEK or CPN is 15% or more and less than 30%.)”; the “Solubility CPO” value worked out at 15 % by weight; the “Solubility MEK” value is 5 % by weight. For the same compound, in data set [2], the “Durability 100° C. Relatibe 144 hours” value is “C (A variation in Re (550) after the test with respect to the initial retardation value is 30% or more.)” and the “Durability of optically anisotropic film” value is “deteriorated”.
For `C=CC(=O)OCC(C)(C)COC(=O)CCC(=O)OCCc1ccc(OC(=O)C2CCC(C(=O)Oc3cc(C(C)(C)C)c(OC(=O)C4CCC(C(=O)Oc5ccc(CCOC(=O)CCC(=O)OCC(C)(C)COC(=O)C=C)cc5)CC4)c4c3SC(=C(C#N)C#N)S4)CC2)cc1` (centres unmarked) [Compound C-1], in data set [1], the “Solubility Evaluation” value is listed as “A (A solubility in any one of MEK or CPN is 30% or more.)”, the “Solubility CPO” value came out at 40 % by weight and the “Solubility MEK” value is on record as 40 % by weight.
Regarding `C=CC(=O)OCCCCCCOc1ccc(OC(=O)C2CCC(C(=O)Oc3c(C(C)(C)C)cc(OC(=O)C4CCC(C5CCC(CC)CC5)CC4)c4c3SC(=C(C#N)C#N)S4)CC2)cc1` (centres unmarked) [Compound I-3], in data set [1], the “Solubility Evaluation” value was “B (A solubility in any one of MEK or CPN is 15% or more and less than 30%.)”; the “Solubility CPO” value came out at 20 % by weight; the “Solubility MEK” value worked out at 10 % by weight. The “Durability 100° C. Relatibe 144 hours” value in data set [2] was “A (A variation in Re (550) after the test with respect to the initial retardation value is less than 15% of the initial value.)”.
With `C=CC(=O)OCC(C)(C)COC(=O)CCC(=O)OCCc1ccc(OC(=O)C2CCC(C(=O)Oc3cc(C(C)(C)C)c(OC(=O)C4CCC(C5CCC(CC)CC5)CC4)c4c3SC(=C(C#N)C#N)S4)CC2)cc1` (centres unmarked) [Compound I-13], in data set [1], the “Solubility Evaluation” value is “B (A solubility in any one of MEK or CPN is 15% or more and less than 30%.)”; the “Solubility CPO” value is given as 15 % by weight; the “Solubility MEK” value is 5 % by weight. For the same compound, the “Durability 100° C. Relatibe 144 hours” value in data set [2] is “B (A variation in Re (550) after the test with respect to the initial retardation value is 15% or more and less than 30% of the initial value.)”.
Turning to `C=CC(=O)OCCCCCCOc1ccc(OC(=O)C2CCC(C(=O)Oc3cc(C(C)(C)C)c(OC(=O)C4CCC(C(=O)Oc5ccc(OCCCCCCOC(=O)C=C)cc5)CC4)c4c3SC(=C(C#N)C#N)S4)CC2)cc1` (centres unmarked) [Compound E-1], in data set [1], the “Solubility Evaluation” value is “C (A solubility in any one of MEK or CPN is less than 15%.)”, the “Solubility CPO” value is 10 % by weight and the “Solubility MEK” value turned out to be 8 % by weight. For the same compound, in data set [2], the “Durability 100° C. Relatibe 144 hours” value is listed as “C (A variation in Re (550) after the test with respect to the initial retardation value is 30% or more.)” and the “Durability of optically anisotropic film” value was “deteriorate”.
For `C=CC(=O)OCCOC(=O)CCC(=O)OCCc1ccc(OC(=O)C2CCC(C(=O)Oc3c(C(C)(C)C)cc(OC(=O)C4CCC(C5CCC(CC)CC5)CC4)c4c3SC(=C(C#N)C#N)S4)CC2)cc1` (centres unmarked) [Compound I-2], in data set [1], the “Solubility Evaluation” value is listed as “A (A solubility in any one of MEK or CPN is 30% or more.)”, the “Solubility CPO” value is listed as 30 % by weight and the “Solubility MEK” value was 35 % by weight. In data set [2], the “Durability 100° C. Relatibe 144 hours” value is recorded as “A (A variation in Re (550) after the test with respect to the initial retardation value is less than 15% of the initial value.)”.
For `C=CC(=O)OCCOC(=O)CCC(=O)OCCc1ccc(OC(=O)C2CCC(C(=O)Oc3cc(C(C)(C)C)c(OC(=O)C4CCC(C(=O)Oc5ccc(CCOC(=O)CCC(=O)OCCOC(=O)C=C)cc5)CC4)c4c3SC(=C(C#N)C#N)S4)CC2)cc1` [Compound D-1], in data set [1], the “Solubility Evaluation” value is given as “A (A solubility in any one of MEK or CPN is 30% or more.)”, the “Solubility CPO” value is given as 40 % by weight and the “Solubility MEK” value worked out at 40 % by weight. Also, in data set [2], the “Durability 100° C. Relatibe 144 hours” value is recorded as “C (A variation in Re (550) after the test with respect to the initial retardation value is 30% or more.)” and the “Durability of optically anisotropic film” value was “deteriorate”.
In the case of `CCC1CCC(C2CCC(C(=O)Oc3cc(C(C)(C)C)c(OC(=O)C4CCC(C5CCC(CC)CC5)CC4)c4c3SC(=C(C#N)C#N)S4)CC2)CC1` (centres unmarked) [Compound I-1f], in data set [1], the “Solubility Evaluation” value is “C (A solubility in any one of MEK or CPN is less than 15%.)”, the “Solubility CPO” value worked out at 1 % by weight and the “Solubility MEK” value is reported as less than 1 % by weight.
`C=CC(=O)OCC(C)(C)COC(=O)CCC(=O)OCCc1ccc(OC(=O)C2CCC(C(=O)Oc3ccc(OC(=O)C4CCC(C5CCC(CC)CC5)CC4)c4c3SC(=C(C#N)C#N)S4)CC2)cc1` (centres unmarked) [Compound A-1]: in data set [1], the “Solubility Evaluation” value is given as “C (A solubility in any one of MEK or CPN is less than 15%.)”, the “Solubility CPO” value is recorded as 10 % by weight and the “Solubility MEK” value came to 1 % by weight. For the same compound, in data set [2], the “Durability 100° C. Relatibe 144 hours” value was “C (A variation in Re (550) after the test with respect to the initial retardation value is 30% or more.)” and the “Durability of optically anisotropic film” value was “deteriorated”.
